In the supplement of paper PMC10627819:

Columns and labels:
S. pneumoniae D39V [1] = experiment: fitness (endpoint OD595 vs no drug) (fraction); higher = more growth
In short: (§1)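 Background-subtracted growth curves were the basis for fitness, taken as the optical density at entry into stationary phase over the robust mean of no-drug control wells. A cap of 1 was applied. The curves came from OD595 readings every 30 min for 14 h at 37 °C, in 384-well plates seeded at OD595 0.01 with 30 µl, or 55 µl for S. pneumoniae.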

B. subtilis 168 [2] = experiment: as above
In short: as §1

S. pneumoniae D39V [3] = experiment: Bliss interaction score (quartile over a dose matrix) (fitness difference); higher = more antagonism (negative = synergy)
In short: (§2)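 Fitness is OD595 at stationary-phase entry relative to the plate's robust no-drug mean, capped at 1. Single-drug fitness was inferred from combinations. The Bliss score is observed minus product-expected fitness, summarised by quartiles over technical, biological and donor/recipient replicates.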

S. aureus Newman = experiment: as above
In short: as §2

B. subtilis 168 [4] = experiment: as above
In short: as §2

S. aureus DSM 20231 = experiment: as above
In short: as §2
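Throughout, for Bliss interaction score (quartile over a dose matrix): first quartile when negative (synergy) and third quartile when positive (antagonism).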

C[C@H]1COc2c(N3CCN(C)CC3)c(F)cc3c(=O)c(C(=O)O)cn1c23 [Levofloxacin] + CN(C)C(=O)C(CCN1CCC(O)(c2ccc(Cl)cc2)CC1)(c1ccccc1)c1ccccc1 [Loperamide]
Settings | fitness
B. subtilis 168 [2], first compound 0.0312 µg/mL, partner 25 µg/mL | 0.0337
B. subtilis 168 [2], first compound 0.0312 µg/mL, partner 50 µg/mL | 0.0298
B. subtilis 168 [2], first compound 0.0312 µg/mL, partner 100 µg/mL | 0.0296
B. subtilis 168 [2], first compound 0.0625 µg/mL, partner 25 µg/mL | 0.0122
B. subtilis 168 [2], first compound 0.0625 µg/mL, partner 50 µg/mL | 0.0229
B. subtilis 168 [2], first compound 0.0625 µg/mL, partner 100 µg/mL | 0.0349
B. subtilis 168 [2], first compound 0.125 µg/mL, partner 25 µg/mL | 0.0335
B. subtilis 168 [2], first compound 0.125 µg/mL, partner 50 µg/mL | 0.0386
B. subtilis 168 [2], first compound 0.125 µg/mL, partner 100 µg/mL | 0.0401
S. pneumoniae D39V [1], first compound 0.1725 µg/mL, partner 20 µg/mL | ≥ 1
S. pneumoniae D39V [1], first compound 0.1725 µg/mL, partner 40 µg/mL | ≥ 1
S. pneumoniae D39V [1], first compound 0.2 µg/mL, partner 17.14 µg/mL | 0.877
S. pneumoniae D39V [1], first compound 0.2 µg/mL, partner 34.28 µg/mL | 0.9
S. pneumoniae D39V [1], first compound 0.345 µg/mL, partner 20 µg/mL | 0.998
S. pneumoniae D39V [1], first compound 0.345 µg/mL, partner 40 µg/mL | ≥ 1
S. pneumoniae D39V [1], first compound 0.4 µg/mL, partner 17.14 µg/mL | 0.901
S. pneumoniae D39V [1], first compound 0.4 µg/mL, partner 34.28 µg/mL | 0.883
S. pneumoniae D39V [1], first compound 0.69 µg/mL, partner 20 µg/mL | 0.787
S. pneumoniae D39V [1], first compound 0.69 µg/mL, partner 40 µg/mL | 0.837
S. pneumoniae D39V [1], first compound 0.8 µg/mL, partner 34.28 µg/mL | 0.642

fitness, one replicate
Settings | first compound 0.001 µg/mL | first compound 0.002 µg/mL | first compound 0.0039 µg/mL | first compound 0.2 µg/mL | first compound 0.4 µg/mL | first compound 0.8 µg/mL
B. subtilis 168 [2], partner 25 µg/mL | 0.807 | 0.714 | 0.714 | – | – | –
B. subtilis 168 [2], partner 50 µg/mL | 0.618 | 0.172 | 0.206 | – | – | –
B. subtilis 168 [2], partner 100 µg/mL | 0.613 | 0.51 | 0.581 | – | – | –
S. pneumoniae D39V [1], partner 68.57 µg/mL | – | – | – | 0.913 | 0.896 | 0.864

Settings | Bliss interaction score
B. subtilis 168 [4] | 0.155
S. aureus DSM 20231 | 0.0444
S. aureus Newman | 0.0501
S. pneumoniae D39V [3] | 0.189

C[C@H]1COc2c(N3CCN(C)CC3)c(F)cc3c(=O)c(C(=O)O)cn1c23 [Levofloxacin] + CN(C)c1cc(NC(=O)CNC(C)(C)C)c(O)c2c1C[C@H]1C[C@H]3[C@H](N(C)C)C(O)=C(C(N)=O)C(=O)[C@@]3(O)C(O)=C1C2=O [Tigecycline]
fitness
Settings | first compound 0.0312 µg/mL | first compound 0.0625 µg/mL | first compound 0.125 µg/mL | first compound 0.1725 µg/mL | first compound 0.2 µg/mL | first compound 0.345 µg/mL | first compound 0.4 µg/mL | first compound 0.69 µg/mL | first compound 0.8 µg/mL
B. subtilis 168 [2], partner 0.039 µg/mL | 0.0258 | 0.0305 | 0.0314 | – | – | – | – | – | –
B. subtilis 168 [2], partner 0.078 µg/mL | 0.0327 | 0.0457 | 0.0438 | – | – | – | – | – | –
B. subtilis 168 [2], partner 0.156 µg/mL | 0.0426 | 0.0476 | 0.0441 | – | – | – | – | – | –
S. pneumoniae D39V [1], partner 0.65 µg/mL | – | – | – | 0.96 | 0.853 | 0.88 | 0.712 | 0.456 | 0.301
S. pneumoniae D39V [1], partner 1.3 µg/mL | – | – | – | 0.949 | 0.842 | 0.85 | 0.713 | 0.537 | 0.35
S. pneumoniae D39V [1], partner 2.6 µg/mL | – | – | – | 0.926 | 0.81 | 0.835 | 0.705 | 0.544 | 0.321

fitness, B. subtilis 168 [2], one replicate
Settings | partner 0.039 µg/mL | partner 0.078 µg/mL | partner 0.125 µg/mL | partner 0.156 µg/mL | partner 0.25 µg/mL | partner 0.5 µg/mL
first compound 0.001 µg/mL | 0.897 | 0.893 | – | 0.926 | – | –
first compound 0.002 µg/mL | 0.932 | 0.911 | ≥ 1 | 0.878 | 0.862 | 0.993
first compound 0.0039 µg/mL | 0.847 | 0.855 | 0.985 | 0.971 | 0.955 | 0.887
first compound 0.0078 µg/mL | – | – | 0.94 | – | 0.94 | 0.885

Settings | Bliss interaction score
B. subtilis 168 [4] | -0.0381
S. aureus DSM 20231 | -0.101
S. aureus Newman | -0.045
S. pneumoniae D39V [3] | -0.132

C[C@H]1COc2c(N3CCN(C)CC3)c(F)cc3c(=O)c(C(=O)O)cn1c23 [Levofloxacin] + CN(N=O)C(=O)N[C@@H](C=O)[C@@H](O)[C@H](O)[C@H](O)CO [Streptozotocin]
fitness, S. pneumoniae D39V [1]
Settings | first compound 0.1725 µg/mL | first compound 0.345 µg/mL | first compound 0.69 µg/mL
partner 1.2 µg/mL | 0.938 | 0.816 | 0.362
partner 2.4 µg/mL | 0.936 | 0.845 | 0.398
partner 4.8 µg/mL | 0.952 | 0.841 | 0.44

fitness, one replicate
Settings | first compound 0.001 µg/mL | first compound 0.002 µg/mL | first compound 0.0039 µg/mL | first compound 0.0312 µg/mL | first compound 0.0625 µg/mL | first compound 0.125 µg/mL | first compound 0.2 µg/mL | first compound 0.4 µg/mL | first compound 0.8 µg/mL
B. subtilis 168 [2], partner 0.15 µg/mL | 0.98 | 0.923 | 0.934 | 0.0317 | 0.0292 | 0.0367 | – | – | –
B. subtilis 168 [2], partner 0.3 µg/mL | 0.96 | 0.948 | 0.886 | 0.0288 | 0.0412 | 0.0451 | – | – | –
B. subtilis 168 [2], partner 0.6 µg/mL | ≥ 1 | ≥ 1 | 0.979 | 0.025 | 0.0304 | 0.0177 | – | – | –
S. pneumoniae D39V [1], partner 1.2 µg/mL | – | – | – | – | – | – | 0.925 | 0.759 | 0.259
S. pneumoniae D39V [1], partner 2.4 µg/mL | – | – | – | – | – | – | 0.909 | 0.802 | 0.302
S. pneumoniae D39V [1], partner 4.8 µg/mL | – | – | – | – | – | – | 0.823 | 0.603 | 0.0669

Settings | Bliss interaction score
B. subtilis 168 [4] | 0.0603
S. aureus DSM 20231 | -0.0228
S. aureus Newman | -0.102
S. pneumoniae D39V [3] | -0.0624

C[C@H]1COc2c(N3CCN(C)CC3)c(F)cc3c(=O)c(C(=O)O)cn1c23 [Levofloxacin] + CN[C@@H]1[C@H](O)[C@H](NC)[C@H]2O[C@@]3(O)C(=O)C[C@@H](C)O[C@H]3O[C@@H]2[C@H]1O [Spectinomycin]
fitness
Settings | first compound 0.0312 µg/mL | first compound 0.0625 µg/mL | first compound 0.125 µg/mL | first compound 0.1725 µg/mL | first compound 0.345 µg/mL | first compound 0.69 µg/mL
B. subtilis 168 [2], partner 2 µg/mL | 0.036 | 0.0431 | 0.0402 | – | – | –
B. subtilis 168 [2], partner 4 µg/mL | 0.0347 | 0.0352 | 0.0401 | – | – | –
B. subtilis 168 [2], partner 8 µg/mL | 0.0234 | 0.0342 | 0.0261 | – | – | –
S. pneumoniae D39V [1], partner 4 µg/mL | – | – | – | 0.875 | 0.808 | 0.41
S. pneumoniae D39V [1], partner 8 µg/mL | – | – | – | 0.928 | 0.816 | 0.439
S. pneumoniae D39V [1], partner 16 µg/mL | – | – | – | 0.835 | 0.737 | 0.396

fitness, one replicate
Settings | first compound 0.001 µg/mL | first compound 0.002 µg/mL | first compound 0.0039 µg/mL | first compound 0.2 µg/mL | first compound 0.4 µg/mL | first compound 0.8 µg/mL
B. subtilis 168 [2], partner 2 µg/mL | 0.986 | 0.966 | 0.988 | – | – | –
B. subtilis 168 [2], partner 4 µg/mL | 0.955 | 0.888 | ≥ 1 | – | – | –
B. subtilis 168 [2], partner 8 µg/mL | 0.99 | 0.912 | ≥ 1 | – | – | –
S. pneumoniae D39V [1], partner 4 µg/mL | – | – | – | 0.96 | 0.868 | 0.446
S. pneumoniae D39V [1], partner 8 µg/mL | – | – | – | 0.9 | 0.804 | 0.508

Settings | Bliss interaction score
B. subtilis 168 [4] | -0.0192
S. aureus DSM 20231 | 0.0353
S. aureus Newman | -0.0582
S. pneumoniae D39V [3] | -0.0643

C[C@H]1COc2c(N3CCN(C)CC3)c(F)cc3c(=O)c(C(=O)O)cn1c23 [Levofloxacin] + CN[C@@H]1[C@H](O[C@H]2[C@H](O[C@H]3[C@H](O)[C@@H](O)[C@H](N=C(N)N)[C@@H](O)[C@@H]3N=C(N)N)O[C@@H](C)[C@]2(O)C=O)O[C@@H](CO)[C@H](O)[C@H]1O [Streptomycin]
fitness
Settings | partner 2 µg/mL | partner 4 µg/mL | partner 8 µg/mL
B. subtilis 168 [2], first compound 0.0312 µg/mL | 0.0408 | 0.0413 | 0.0242
B. subtilis 168 [2], first compound 0.0625 µg/mL | 0.0475 | 0.0546 | 0.033
B. subtilis 168 [2], first compound 0.125 µg/mL | 0.0446 | 0.0475 | 0.0333
S. pneumoniae D39V [1], first compound 0.1725 µg/mL | 0.942 | 0.923 | 0.927
S. pneumoniae D39V [1], first compound 0.2 µg/mL | – | 0.9 | 0.798
S. pneumoniae D39V [1], first compound 0.345 µg/mL | 0.817 | 0.812 | 0.788
S. pneumoniae D39V [1], first compound 0.4 µg/mL | – | 0.806 | 0.704
S. pneumoniae D39V [1], first compound 0.69 µg/mL | 0.316 | 0.422 | 0.445
S. pneumoniae D39V [1], first compound 0.8 µg/mL | – | 0.307 | 0.293

fitness, one replicate
Settings | first compound 0.001 µg/mL | first compound 0.002 µg/mL | first compound 0.0039 µg/mL | first compound 0.2 µg/mL | first compound 0.4 µg/mL | first compound 0.8 µg/mL
B. subtilis 168 [2], partner 2 µg/mL | 0.963 | 0.952 | 0.932 | – | – | –
B. subtilis 168 [2], partner 4 µg/mL | ≥ 1 | 0.737 | 0.832 | – | – | –
B. subtilis 168 [2], partner 8 µg/mL | 0.252 | 0.0282 | 0.047 | – | – | –
S. pneumoniae D39V [1], partner 2 µg/mL | – | – | – | 0.955 | 0.855 | 0.346
S. pneumoniae D39V [1], partner 16 µg/mL | – | – | – | 0.718 | 0.602 | 0.208

Settings | Bliss interaction score
B. subtilis 168 [4] | 0.0365
S. aureus DSM 20231 | -0.0487
S. aureus Newman | 0.0694
S. pneumoniae D39V [3] | -0.0992
